Consider 5 molecules from patent publication US11566057B2, “Long-acting co-agonists of the glucagon and GLP-1 receptors” (Merck Sharp & Dohme Corp., priority 2017, dated 2023).

One experiment has as its target T1, human GCGR (Homo sapiens, UniProt P47871).
T1 construct: expressed in transfected cells; growth medium holds Blasticidin and Hygromycin
As to the kind of experiment: cAMP activity assay at the Glucagon receptor (GCGR). The class given is cell-based. The note with it: for hGCGR/hGLP1R (hTone): ratio of GCGR EC50 to GLP1R EC50. A digest of the protocol: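 Peptides serially diluted from DMSO (10 points) and added to frozen-stock cells bearing human GLP1R (10,000 cells/well) or GCGR (30,000 cells/well), 1 h at RT, dark. EC50 by four-parameter logistic fit of HitHunter cAMPXS luminescence, read following overnight RT incubation.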

A further experiment deals with T2, human GLP1R (Homo sapiens, UniProt P43220).
T2 construct: expressed in transfected cells; growth medium holds Blasticidin and Hygromycin
T2 sequence (P43220 24-463): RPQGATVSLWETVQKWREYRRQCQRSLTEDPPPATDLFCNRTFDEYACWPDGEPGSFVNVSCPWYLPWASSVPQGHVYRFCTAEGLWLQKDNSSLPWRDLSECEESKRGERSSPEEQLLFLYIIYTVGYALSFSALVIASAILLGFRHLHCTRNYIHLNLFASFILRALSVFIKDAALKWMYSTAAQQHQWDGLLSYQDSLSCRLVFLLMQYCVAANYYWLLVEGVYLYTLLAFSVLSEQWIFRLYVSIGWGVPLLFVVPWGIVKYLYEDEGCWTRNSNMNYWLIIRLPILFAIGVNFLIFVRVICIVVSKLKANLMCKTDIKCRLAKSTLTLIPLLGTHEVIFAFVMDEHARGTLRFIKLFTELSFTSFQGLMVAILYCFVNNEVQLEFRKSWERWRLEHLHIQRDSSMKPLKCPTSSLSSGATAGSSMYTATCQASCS
As to the kind of experiment: cAMP activity assay at the GLP-1 receptor (GLP1R). The class given is cell-based. As for the experimental part: Activity of the peptides at the Glucagon receptor (GCGR) and GLP-1 receptor (GLP1R) was measured in a cAMP activity assay.
GCG/GLP-1 receptor co-agonist peptides were dissolved in 100% DMSO (dimethyl sulfoxide) and serially diluted to generate 10 point titrations. The peptide solutions were then transferred into 384-well assay plates (150 nL/well). Assay ready frozen cells expressing human GLP1R or human GCGR were suspended in growth media consisting of DMEM medium (GIBCO®), 10% FBS (GIBCO®), 1×NEAA(GIBCO®), 1×P/S (GIBCO®), 10 ug/mL Blasticidin (GIBCO®) and 200 μg/mL Hygromycin (GIBCO®). […] The cell suspensions (15 μL) were then added to the assay plates containing the peptide solutions (30,000 cells/well for human GCGR; 10,000 cells/well for human GLP1R). The cells were incubated for 1 hour at room temperature in the dark. Production of cAMP was determined using HitHunter™ cAMPXS kits (DiscoverX) following manufacturer protocol. The plates were incubated for overnight at room temperature in the dark. Luminescence was measured using an EnVision Multilabel plate reader (Perkin Elmer). Native GLP-1 and Glucagon (Bachem) are used as control peptides. EC50 values were calculated using uses a 4 parameter logistic fit based on the Levenberg-Marquardt algorithm.

The mark [1] stands for this setting: summary statement: EC50 at each of the glucagon and GLP-1 receptors, read-out: EC50 at the glucagon receptor.
[2] abbreviates: summary statement: EC50 at each of the glucagon and GLP-1 receptors, read-out: EC50 at the GLP-1 receptor.
Setting [3] is: cells expressing human GLP1R, cAMP production, buffer with or without 20% human serum (not stated which), read-out: GLP1R EC50 human.

Structures are written as SMILES. Read-outs that look alike come from different tables or passages of the source. Numbered stars: 1 amine (or outer) side, 2 acyl side, 3 side chain; on linkers, the order of the positions; unused ones are H or OH. Square brackets hold non-standard residues; d marks the D form. Side chains are listed from the residue outwards. Peptide text beside a SMILES is read from it. * marks the point of attachment. C20 diacid = O=C(O)CCCCCCCCCCCCCCCCCCC(=O)*; C18 diacid = O=C(O)CCCCCCCCCCCCCCCCC(=O)*; γGlu = O=C(O)[C@H](CCC(=O)[*:2])N[*:1]; Met(O2) = CS(=O)(=O)CC[C@H](N)C(=O)O; αMeF = C[C@](N)(Cc1ccccc1)C(=O)O; αMeD = C[C@](N)(CC(=O)O)C(=O)O; αMeS = C[C@](N)(CO)C(=O)O; AEEA = NCCOCCOCC(=O)O; Aib = CC(C)(N)C(=O)O A value given as a limit tells only on which side of the number the result lay.

T1 sequence (P47871 26-477): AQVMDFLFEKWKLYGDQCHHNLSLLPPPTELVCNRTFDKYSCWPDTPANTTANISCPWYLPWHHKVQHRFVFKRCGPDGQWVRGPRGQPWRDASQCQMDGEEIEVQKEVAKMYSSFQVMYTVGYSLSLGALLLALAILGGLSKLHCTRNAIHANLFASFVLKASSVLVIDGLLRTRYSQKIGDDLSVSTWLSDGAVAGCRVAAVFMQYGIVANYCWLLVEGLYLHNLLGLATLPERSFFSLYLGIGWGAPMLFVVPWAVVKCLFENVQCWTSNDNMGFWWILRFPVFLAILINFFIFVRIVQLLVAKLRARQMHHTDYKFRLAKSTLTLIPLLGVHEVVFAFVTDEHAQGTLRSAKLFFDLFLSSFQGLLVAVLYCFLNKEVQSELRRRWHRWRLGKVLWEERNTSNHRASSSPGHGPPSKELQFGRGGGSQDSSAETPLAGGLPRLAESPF

Turning to `CC(C)C[C@H](NC(=O)[C@H](Cc1ccc(O)cc1)NC(=O)[C@H](CCCCN)NC(=O)[C@H](CO)NC(=O)[C@H](Cc1ccc(O)cc1)NC(=O)[C@H](CC(=O)O)NC(=O)[C@H](CO)NC(=O)[C@@H](NC(=O)[C@H](Cc1ccccc1)NC(=O)[C@@H](NC(=O)CNC(=O)[C@H](CCC(N)=O)NC(=O)C(C)(C)NC(=O)[C@@H](N)Cc1c[nH]cn1)[C@@H](C)O)[C@@H](C)O)C(=O)N[C@@H](CC(=O)O)C(=O)N[C@@H](C)C(=O)N[C@@H](CCCNC(=N)N)C(=O)N[C@@H](C)C(=O)N[C@@H](C)C(=O)N[C@@H](CCCCNC(=O)COCCOCCNC(=O)CC[C@H](NC(=O)CCCCCCCCCCCCCCCCC(=O)O)C(=O)O)C(=O)N[C@@H](CC(=O)O)C(=O)N[C@@H](Cc1ccccc1)C(=O)N[C@H](C(=O)N[C@@H](CCC(N)=O)C(=O)N[C@@H](Cc1c[nH]c2ccccc12)C(=O)N[C@@H](CC(C)C)C(=O)N[C@@H](CCS(C)(=O)=O)C(=O)N[C@@H](CC(=O)O)C(=O)N[C@H](C(N)=O)[C@@H](C)O)C(C)C` [TP626] (H-H[Aib]QGTFTSDYSKYLDARAAK([AEEA-γGlu-C18 diacid])DFVQWL[Met(O2)]DT-NH2; N-terminus assumed), at human GCGR, the “hGCGR/hGLP1R (hTone)” value is listed as 0.6. Besides, the EC50 on human GCGR (setting [1]) and at human GLP1R (setting [2]) was below 5 nM throughout.
Regarding `CC(C)C[C@H](NC(=O)[C@H](Cc1ccc(O)cc1)NC(=O)[C@H](CCCCN)NC(=O)[C@H](CO)NC(=O)[C@H](Cc1ccc(O)cc1)NC(=O)[C@H](CC(=O)O)NC(=O)[C@H](CO)NC(=O)[C@@H](NC(=O)[C@H](Cc1ccccc1)NC(=O)[C@@H](NC(=O)CNC(=O)[C@H](CCC(N)=O)NC(=O)[C@](C)(CO)NC(=O)[C@@H](N)Cc1c[nH]cn1)[C@@H](C)O)[C@@H](C)O)C(=O)N[C@@H](CC(=O)O)C(=O)N[C@@H](C)C(=O)N[C@@H](CCCNC(=N)N)C(=O)N[C@@H](C)C(=O)N[C@@H](C)C(=O)N[C@@H](CCCCNC(=O)COCCOCCNC(=O)COCCOCCNC(=O)CC[C@H](NC(=O)CCCCCCCCCCCCCCCCC(=O)O)C(=O)O)C(=O)N[C@@H](CC(=O)O)C(=O)N[C@@H](Cc1ccccc1)C(=O)N[C@H](C(=O)N[C@@H](CCC(N)=O)C(=O)N[C@@H](Cc1c[nH]c2ccccc12)C(=O)N[C@@H](CC(C)C)C(=O)N[C@@H](CCS(C)(=O)=O)C(=O)N[C@@](C)(CC(=O)O)C(=O)N[C@H](C(N)=O)[C@@H](C)O)C(C)C` [TP616] (H-H[αMeS]QGTFTSDYSKYLDARAAK([AEEA-AEEA-γGlu-C18 diacid])DFVQWL[Met(O2)][αMeD]T-NH2; N-terminus assumed), the “hGCGR/hGLP1R (hTone)” value on human GCGR was 0.7. Further, the concentration giving a half-maximal response (EC50) at human GCGR (setting [1]) and at human GLP1R (setting [2]) was below 5 nM each time.
As for `CC(C)C[C@H](NC(=O)[C@H](Cc1ccc(O)cc1)NC(=O)[C@H](CCCCN)NC(=O)[C@H](CO)NC(=O)[C@H](Cc1ccc(O)cc1)NC(=O)[C@H](CC(=O)O)NC(=O)[C@H](CO)NC(=O)[C@@H](NC(=O)[C@H](Cc1ccccc1)NC(=O)[C@@H](NC(=O)CNC(=O)[C@H](CCC(N)=O)NC(=O)C(C)(C)NC(=O)[C@@H](N)Cc1c[nH]cn1)[C@@H](C)O)[C@@H](C)O)C(=O)N[C@@H](CC(=O)O)C(=O)N[C@@H](C)C(=O)N[C@@H](CCCNC(=N)N)C(=O)N[C@@H](C)C(=O)N[C@@H](C)C(=O)N[C@@H](CCCCNC(=O)COCCOCCNC(=O)COCCOCCNC(=O)CC[C@H](NC(=O)CCCCCCCCCCCCCCCCCCC(=O)O)C(=O)O)C(=O)N[C@@H](CC(=O)O)C(=O)N[C@@](C)(Cc1ccccc1)C(=O)N[C@H](C(=O)N[C@@H](CCC(N)=O)C(=O)N[C@@H](Cc1c[nH]c2ccccc12)C(=O)N[C@@H](CC(C)C)C(=O)N[C@@H](CCS(C)(=O)=O)C(=O)N[C@@H](CC(=O)O)C(=O)N[C@H](C(N)=O)[C@@H](C)O)C(C)C` [TP590] (H-H[Aib]QGTFTSDYSKYLDARAAK([AEEA-AEEA-γGlu-C20 diacid])D[αMeF]VQWL[Met(O2)]DT-NH2), the “hGCGR/hGLP1R (hTone)” value at human GCGR is recorded as 3.1. Further, the EC50 on human GCGR (setting [1]) and at human GLP1R (setting [2]) was below 5 nM throughout.
`CC(C)C[C@H](NC(=O)[C@H](Cc1ccc(O)cc1)NC(=O)[C@H](CCCCN)NC(=O)[C@H](CO)NC(=O)[C@H](Cc1ccc(O)cc1)NC(=O)[C@H](CC(=O)O)NC(=O)[C@H](CO)NC(=O)[C@@H](NC(=O)[C@H](Cc1ccccc1)NC(=O)[C@@H](NC(=O)CNC(=O)[C@H](CCC(N)=O)NC(=O)C(C)(C)NC(=O)[C@@H](N)Cc1c[nH]cn1)[C@@H](C)O)[C@@H](C)O)C(=O)N[C@@H](CC(=O)O)C(=O)N[C@@H](C)C(=O)N[C@@H](CCCNC(=N)N)C(=O)N[C@@H](C)C(=O)N[C@@H](C)C(=O)N[C@@H](CCCCNC(=O)COCCOCCNC(=O)COCCOCCNC(=O)CC[C@H](NC(=O)CCCCCCCCCCCCCCCCC(=O)O)C(=O)O)C(=O)N[C@@](C)(CC(=O)O)C(=O)N[C@@H](Cc1ccccc1)C(=O)N[C@H](C(=O)N[C@@H](CCC(N)=O)C(=O)N[C@@H](Cc1c[nH]c2ccccc12)C(=O)N[C@@H](CC(C)C)C(=O)N[C@@H](CCS(C)(=O)=O)C(=O)N[C@@](C)(CC(=O)O)C(=O)N[C@H](C(N)=O)[C@@H](C)O)C(C)C` [TP611] (H-H[Aib]QGTFTSDYSKYLDARAAK([AEEA-AEEA-γGlu-C18 diacid])[αMeD]FVQWL[Met(O2)][αMeD]T-NH2): the EC50 was 0.2 nM at human GCGR (cells expressing human GCGR, cAMP production, buffer with or without 20% human serum (not stated which), read-out: GCGR EC50 human) and above 5 nM on human GLP1R (setting [3]). In addition, the “hGCGR/hGLP1R (hTone)” value on human GCGR was below 0.02.
Consider `CC(C)C[C@H](NC(=O)[C@H](Cc1c[nH]c2ccccc12)NC(=O)[C@H](CCC(N)=O)NC(=O)[C@@H](NC(=O)[C@H](Cc1ccccc1)NC(=O)[C@](C)(CC(=O)O)NC(=O)[C@H](CCCCNC(=O)COCCOCCNC(=O)COCCOCCNC(=O)CC[C@H](NC(=O)CCCCCCCCCCCCCCCCC(=O)O)C(=O)O)NC(=O)[C@H](C)NC(=O)[C@H](C)NC(=O)[C@H](CCCNC(=N)N)NC(=O)[C@H](C)NC(=O)[C@](C)(CC(=O)O)NC(=O)[C@H](CC(C)C)NC(=O)[C@H](Cc1ccc(O)cc1)NC(=O)[C@H](CCCCN)NC(=O)[C@H](CO)NC(=O)[C@H](Cc1ccc(O)cc1)NC(=O)[C@H](CC(=O)O)NC(=O)[C@H](CO)NC(=O)[C@@H](NC(=O)[C@H](Cc1ccccc1)NC(=O)[C@@H](NC(=O)CNC(=O)[C@H](CCC(N)=O)NC(=O)C(C)(C)NC(=O)[C@@H](N)Cc1c[nH]cn1)[C@@H](C)O)[C@@H](C)O)C(C)C)C(=O)N[C@@H](CCS(C)(=O)=O)C(=O)N[C@@](C)(CC(=O)O)C(=O)N[C@H](C(N)=O)[C@@H](C)O` [TP612] (H-H[Aib]QGTFTSDYSKYL[αMeD]ARAAK([AEEA-AEEA-γGlu-C18 diacid])[αMeD]FVQWL[Met(O2)][αMeD]T-NH2; N-terminus assumed), for which, on human GCGR, the “hGCGR/hGLP1R (hTone)” value was below 0.41. Besides, the EC50 is below 5 nM on human GCGR (setting [1]), 4.95 nM on human GLP1R (setting [3]) and below 5 nM on human GLP1R (setting [2]).

A word on the EC50: it is the concentration giving half of the maximal effect.
